Experimental data taken from patent publication US11306082B2, “Esters of dihydrotetrabenazine” (Foresee Pharmaceuticals Co., Ltd., priority 2017, dated 2022).
Converted amounts (≈) assume the structure as drawn.

Assays:
[1] = Solubility in pharmaceutical acceptable organic solvents; format: physicochemical; conditions: for solubility: organic solvent or mixture, thermodynamic from solid, 37° C.
Procedure: Previously, non-aqueous solvents, such as organic solvents, have long been utilized in injectable pharmaceutical products to dissolve water-insoluble drugs. Here, the solubility of compounds of the present application in various organic solvents were tested. The compound suspensions in various pharmaceutical acceptable organic solvents, including dimethylacetamide (DMAc), Dimethyl sulfoxide (DMSO), triacetin (TA), were stirred at 37° C. at designed time interval. At the designed time point, 0.5 mL aliquots were taken and centrifuged at 14,000 rpm for 2 min without temperature control. The supernatant was diluted with ACN and then analyzed by HPLC to determine the amount of dissolved compounds.

[2] = Color stability in organic solvents at 37° C.; format: physicochemical; conditions: incubation at 37° C. for 7 days, organic solvents (FIG. 1)
[3] = Aqueous solubility of compounds; format: physicochemical; conditions: for solubility: aqueous buffer, thermodynamic from solid, 37° C.; for aqueous solubility compared with compound IV: all tested conditions
Procedure: Compound suspensions (2 mg/m L) in various aqueous solutions, including 10 mM pH 4.0 citrate-saline buffer, 10 mM pH 5.0 citrate-saline buffer, 10 mM pH 5.8 PBS, 10 mM pH 7.4 PBS, 10 mM pH 8.5 borate-saline buffer, pure water and serum, were stirred at 37° C. for 2-3 days. Daily, 0.5 to 1 mL aliquots were taken and centrifuged at 14,000 rpm for 2 min without temperature control. The supernatant was analyzed by HPLC to determine the amount of dissolved compounds.

[4] = Solubility in pharmaceutical acceptable oils; format: physicochemical; conditions: for solubility in pharmaceutical acceptable oils (in words): castor, peanut, soybean oil; for solubility: oil or lipid, thermodynamic from solid, 37° C.
Procedure: Conventionally, fatty acids are used to conjugate with a drug to enhance drug's lipophilicity to increase its solubility in oils. The solubility of compounds of the present application in various oils were tested. The suspension of compounds in various pharmaceutical acceptable oils, including castor oil, sesame oil, cottonseed oil, peanut oil and soybean oil, were stirred at 37° C. for 2-3 days. At designed time point, about 200 to 300 μL aliquots were taken and centrifuged at 14,000 rpm for 2 min without temperature control. The supernatant was carefully withdrawn and extracted with 9 folds of ACN. The mixture was then vortexed for 30 sec and subsequently centrifuged at 14,000 rpm for 2 min without temperature control. The supernatant (300 uL) was taken and diluted with 1 fold of isopropanol (IPA) and then analyzed by HPLC to determine the amount of dissolved compounds. The oil without compound after same extraction/dilution step was used as control. […] The higher oil solubility can be advantageously used to make long acting or sustained release formulation to deliver the active compounds.

VMAT2 [5] = target: VMAT2 (Bos taurus, UniProt Q27963); conditions: Scherman et al., 1983; cited from earlier work
VMAT2 [6] = conditions: see 17 of the Declaration; cited from earlier work
[7] = human liver assay, response in application Ser. No. 11/937,445; cited from earlier work
[8] = target: Vesicular Monoamine Transporter Isoform 2 (VMAT2) (UniProt Q01827); assay: VMAT2 competition binding assay ([3H]dihydrotetrabenazine, whole brain membranes); conditions: for IC50: read-out: VMAT2 binding affinity IC50, [3H]Dihydrotetrabenazine 10 nM, 30 min at 25° C.; for Ki: read-out: VMAT2 binding affinity Ki, Cheng-Prusoff from IC50
Procedure: IC50 values were determined by a non-linear, least squares regression analysis using MathIQ™ (ID Business Solutions Ltd., UK).

VMAT2 [9] = target: VMAT2 (Rattus norvegicus, UniProt Q01827); conditions: as disclosed in U.S. Pat. No. 8,039,627; read-out: VMAT2 binding affinity, Ki; cited from earlier work
[10] = system: porcine liver esterase (PLE); assay: Enzymatic ester hydrolysis via porcine liver esterase; format: in vitro ADME
[11] = borate-saline buffer, Borate (10 mM, pH 8.5)
[12] = citrate-saline buffer, Citrate buffer (10 mM, pH 5.0)

Sequence of VMAT2 (Bos taurus, UniProt Q27963) (Q27963 whole entry): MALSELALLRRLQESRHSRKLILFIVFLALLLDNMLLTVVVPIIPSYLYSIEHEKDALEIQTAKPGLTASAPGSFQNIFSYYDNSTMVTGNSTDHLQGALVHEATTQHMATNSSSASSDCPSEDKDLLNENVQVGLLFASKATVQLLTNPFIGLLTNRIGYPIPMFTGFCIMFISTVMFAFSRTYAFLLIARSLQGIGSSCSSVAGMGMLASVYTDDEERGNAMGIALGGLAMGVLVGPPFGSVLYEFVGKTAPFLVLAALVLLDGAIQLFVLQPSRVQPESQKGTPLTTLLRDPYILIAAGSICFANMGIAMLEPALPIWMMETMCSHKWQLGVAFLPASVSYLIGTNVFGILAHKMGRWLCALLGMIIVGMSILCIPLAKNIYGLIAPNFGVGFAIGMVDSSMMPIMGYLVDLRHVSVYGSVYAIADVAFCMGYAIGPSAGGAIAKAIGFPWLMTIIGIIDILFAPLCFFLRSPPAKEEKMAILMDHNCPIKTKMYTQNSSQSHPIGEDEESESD
Sequence of VMAT2 (Rattus norvegicus, UniProt Q01827) (Q01827 whole entry): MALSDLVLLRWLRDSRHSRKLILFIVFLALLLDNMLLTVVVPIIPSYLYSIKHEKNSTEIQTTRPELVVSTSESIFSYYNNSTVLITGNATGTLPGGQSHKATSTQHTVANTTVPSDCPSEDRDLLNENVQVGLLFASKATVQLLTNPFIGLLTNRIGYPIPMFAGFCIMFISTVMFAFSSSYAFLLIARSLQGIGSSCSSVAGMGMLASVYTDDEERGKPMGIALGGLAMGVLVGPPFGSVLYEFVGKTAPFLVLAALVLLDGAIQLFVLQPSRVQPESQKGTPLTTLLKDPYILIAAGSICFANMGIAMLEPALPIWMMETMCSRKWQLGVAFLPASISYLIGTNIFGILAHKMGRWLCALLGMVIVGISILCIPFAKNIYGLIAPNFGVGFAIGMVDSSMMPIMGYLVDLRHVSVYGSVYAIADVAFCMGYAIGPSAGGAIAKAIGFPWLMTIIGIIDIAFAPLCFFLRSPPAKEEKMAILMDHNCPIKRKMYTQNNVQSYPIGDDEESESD

Row | SMILES | solubility ([1]; DMAc) | solubility ([1]; DMSO) | solubility ([1]; Triacetin) | color change in organic solvents [2] | solubility ([3]; PBS (10 mM, pH 5.8)) | solubility ([3]; PBS (10 mM, pH 7.4)) | solubility [3, 11] | solubility [3, 12] | solubility in pharmaceutical acceptable oils (in words) [4] | solubility ([4]; Castor oil) | solubility ([4]; Peanut oil) | solubility ([4]; Soybean oil) | IC50 [8] | Ki [8] | aqueous solubility compared with compound IV [3] | conversion to (+)-α-DHTBZ [7] | further results
1 | COc1cc2c(cc1OC)[C@H]1C[C@@H](O)[C@H](CC(C)C)CN1CC2 [Compd IV, (2R, 3R, 11bR)-3-isobutyl-9,10-dimethoxy-1,3,4,6,7,11b-hexahydro-2H-pyrido[2,1-a]isoquinolin-2-ol, reference compound] | 555000 µg/mL (≈ 1740 mM) | 410000 µg/mL (≈ 1280 mM) | 26100 µg/mL (≈ 81.7 mM) | significant color change | 1380 µg/mL (≈ 4.32 mM) | 244 µg/mL (≈ 0.763 mM) | 140 µg/mL (≈ 0.439 mM) | > 2000 µg/mL | fair to good solubility | 30000 µg/mL (≈ 93.9 mM) | 10100 µg/mL (≈ 31.6 mM) | 8000 µg/mL (≈ 25 mM) | – | – | – | – | –
2 | COc1cc2c(cc1OC)C1CC(=O)C(CC(C)C)CN1CC2 (racemic) [TBZ, 3-isobutyl-9,10,dimethoxy-1,3,4,6,7,11b-hexahydro-2H-pyrido[2,1-a]isoquinolin-2-one] | – | – | – | – | – | – | – | – | – | – | – | – | – | – | – | – | IC50 (VMAT2 [5]): 3.2 nM
3 | COc1cc2c(cc1OC)C1CC(OC(C)=O)C(CC(C)C)CN1CC2 (stereo not shown) [acetate ester of Kilbourn] | – | – | – | – | – | – | – | – | – | – | – | – | – | – | – | no conversion | Ki (VMAT2 [6]): 16 nM
4 | COc1cc2c(cc1OC)[C@H]1C[C@@H](OC(=O)[C@@H](N)C(C)C)[C@H](CC(C)C)CN1CC2 [VBZ, (S)-2-amino-3-methyl-butyric acid (2R, 3R, 11bR)-3-isobutyl-9,10-dimethoxy-1,3,4,6,7,11b-hexahydro-2H-pyrido[2,1-a]isoquinolin-2-yl] | – | – | – | – | – | – | – | – | – | – | – | – | – | – | – | can release the active (+)-α-DHTBZ | Ki (VMAT2 [9]): 187 nM

Second part, led by results:

Row | solubility ([1]; DMAc) | solubility ([1]; DMSO) | solubility ([1]; Triacetin) | color change in organic solvents [2] | solubility ([3]; PBS (10 mM, pH 5.8)) | solubility ([3]; PBS (10 mM, pH 7.4)) | solubility [3, 11] | solubility [3, 12] | solubility in pharmaceutical acceptable oils (in words) [4] | solubility ([4]; Castor oil) | solubility ([4]; Peanut oil) | solubility ([4]; Soybean oil) | IC50 [8] | Ki [8] | aqueous solubility compared with compound IV [3] | SMILES | conversion to (+)-α-DHTBZ [7] | further results
5 | 8810 µg/mL (≈ 13.7 mM) | 150 µg/mL (≈ 0.234 mM) | – | no or minimal color change | < 1 µg/mL | < 1 µg/mL | 1.7 µg/mL (≈ 0.00265 mM) | < 1 µg/mL | fair to good solubility | 31400 µg/mL (≈ 48.9 mM) | 70200 µg/mL (≈ 109 mM) | 96400 µg/mL (≈ 150 mM) | > 10000 nM | > 10000 nM | significantly lower aqueous solubility | CCCCCCCCCCCCCCCCCCCCCC(=O)O[C@@H]1C[C@@H]2c3cc(OC)c(OC)cc3CCN2C[C@H]1CC(C)C [Compd 1-2, (2R,3R, 11bR)-3-isobutyl-9,10-dimethoxy-1,3,4,6,7,11b-hexahydro-2H-pyrido[2,1 a]isoquinolin-2-yl behenate] | – | –
6 | 513000 µg/mL (≈ 919 mM) | 7800 µg/mL (≈ 14 mM) | 29900 µg/mL (≈ 53.6 mM) | no or minimal color change | < 1 µg/mL | 1 µg/mL (≈ 0.00179 mM) | 32.6 µg/mL (≈ 0.0584 mM) | < 1 µg/mL | fair to good solubility | 370000 µg/mL (≈ 663 mM) | 266000 µg/mL (≈ 478 mM) | 277000 µg/mL (≈ 496 mM) | > 10000 nM | > 10000 nM | significantly lower aqueous solubility | CCCCCCCCCCCCCCCC(=O)O[C@@H]1C[C@@H]2c3cc(OC)c(OC)cc3CCN2C[C@H]1CC(C)C [Compd 1-1, (2R,3R, 11bR)-3-isobutyl-9,10-dimethoxy-1,3,4,6,7,11b-hexahydro-2H-pyrido[2,1-a]isoquinolin-2-yl palmitate] | – | solubility in organic solvents (in words) ([1]; all tested solvent (DMSO, DMAc, triacetin)): good solubility; hydrolysis to release (+)-α-DHTBZ (in words) ([10]; PLE/compound ratio of 5 or above): can be hydrolyzed; (+)-α-DHTBZ released by ester hydrolysis ([10]; PLE:compound 1-1 1:1, incubation 80 min, 37° C.): BQL
